From PubChem BioAssay AID330 (DTP/NCI, 2004)
“And” between values parts separate entries of the source, which are not always exact repeats. Equal values may be shown once. Inconclusive results and toxic doses are left out. Rule for the calls: active = survival T/C of 150% or more; inactive = T/C below 125% in these data.

Test system: P388 leukemia ip, CD2F1 mice, survival T/C
Assay: NCI In Vivo Anticancer Drug Screen. Data for tumor model P388 Leukemia (intraperitoneal) in CD2F1 (CDF1) mice
Conditions: endpoint: median survival time, higher = longer survival
Procedure, shortened: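 Mice carrying the transplanted tumor received test compound or vehicle. Survival was recorded in each group, and the value is the treated-group measurement divided by that of the vehicle-treated control group.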

[1] = dose: 50.0 mg/kg/injection, schedule: Q01DX009 (ip), vehicle: saline with Tween-80
[2] = dose: 100.0 mg/kg/injection, schedule: Q01DX009 (ip), vehicle: saline with Tween-80

Measured: T/C

CCOC(=O)C(Cc1ccc(N(CCCl)CCCl)cc1)NC(=O)C(C)NC(C)=O (configuration not stated)
inactive: dose: 5.0 mg/kg/injection, schedule: Q04DX003 (ip), vehicle: water 108 % of control | dose: 10.0 mg/kg/injection, schedule: Q04DX003 (ip), vehicle: water 111 % of control and 113 % of control | dose: 40.0 mg/kg/injection, schedule: Q04DX003 (ip), vehicle: water 122 % of control

O=Cc1c(-c2ccccc2)sc2ccccc2c1=O
inactive: dose: 100.0 mg/kg/injection, schedule: Q04DX002 (ip), vehicle: saline with Tween-80 113 % of control | dose: 200.0 mg/kg/injection, schedule: Q04DX002 (ip), vehicle: saline with Tween-80 98 % of control | dose: 400.0 mg/kg/injection, schedule: Q04DX002 (ip), vehicle: saline with Tween-80 109 % of control

Clc1cc2nc[nH]c2cc1Cl
inactive: [1] 101 % of control | [2] 90 % of control

NC1CCCC1C(=O)O (configuration not stated)
inactive: dose: 50.0 mg/kg/injection, schedule: Q01DX009 (ip), vehicle: saline 96 % of control | dose: 100.0 mg/kg/injection, schedule: Q01DX009 (ip), vehicle: saline 100 % of control | dose: 200.0 mg/kg/injection, schedule: Q01DX009 (ip), vehicle: saline 102 % of control

Cc1ccc(NC(=O)CCCCC(C)NCC(O)c2ccc(O)c(O)c2)cc1 (configuration not stated)
inactive: dose: 100.0 mg/kg/injection, schedule: Q01DX001 (ip), vehicle: saline 97 % of control | dose: 200.0 mg/kg/injection, schedule: Q01DX001 (ip), vehicle: saline 100 % of control

COC(=O)[CH2][Sn]([CH2]C(=O)OC)([CH]1CCCCC1)[CH]1CCCCC1
inactive: dose: 1.56 mg/kg/injection, schedule: Q01DX005 (ip), vehicle: Klucel (hydroxypropylcellulose) (HPC) 104 % of control | dose: 3.12 mg/kg/injection, schedule: Q01DX005 (ip), vehicle: Klucel (hydroxypropylcellulose) (HPC) 88 % of control | dose: 6.25 mg/kg/injection, schedule: Q01DX005 (ip), vehicle: Klucel (hydroxypropylcellulose) (HPC) 111 % of control and 88 % of control

COc1ccc(CNC(=O)C#CCOC2CCCCO2)cc1 (configuration not stated)
inactive: dose: 12.5 mg/kg/injection, schedule: Q01DX005 (ip), vehicle: saline with Tween-80 91 % of control | dose: 25.0 mg/kg/injection, schedule: Q01DX005 (ip), vehicle: saline with Tween-80 90 % of control | dose: 50.0 mg/kg/injection, schedule: Q01DX005 (ip), vehicle: saline with Tween-80 86 % of control | dose: 200.0 mg/kg/injection, schedule: Q01DX005 (ip), vehicle: saline with Tween-80 86 % of control

CCCCC1C(=S)N(c2ccccc2)N(c2ccccc2)C1=S
inactive: dose: 50.0 mg/kg/injection, schedule: Q01DX005 (ip), vehicle: Klucel (hydroxypropylcellulose) (HPC) 101 % of control | dose: 100.0 mg/kg/injection, schedule: Q01DX005 (ip), vehicle: Klucel (hydroxypropylcellulose) (HPC) 94 % of control | dose: 200.0 mg/kg/injection, schedule: Q01DX005 (ip), vehicle: Klucel (hydroxypropylcellulose) (HPC) 97 % of control

CC1=CC(=O)N2CCN=C2S1
inactive: dose: 25.0 mg/kg/injection, schedule: Q04DX003 (ip), vehicle: Klucel (hydroxypropylcellulose) (HPC) 101 % of control | dose: 50.0 mg/kg/injection, schedule: Q04DX003 (ip), vehicle: Klucel (hydroxypropylcellulose) (HPC) 101 % of control | dose: 100.0 mg/kg/injection, schedule: Q04DX003 (ip), vehicle: Klucel (hydroxypropylcellulose) (HPC) 111 % of control and 98 % of control | dose: 200.0 mg/kg/injection, schedule: Q04DX003 (ip), vehicle: Klucel (hydroxypropylcellulose) (HPC) 111 % of control

CC(CN=C(CC(=O)c1ccccc1)c1ccccc1)N=C(CC(=O)c1ccccc1)c1ccccc1.[Cu] (configuration not stated)
inactive: [1] 100 % of control | [2] 106 % of control | dose: 200.0 mg/kg/injection, schedule: Q01DX009 (ip), vehicle: saline with Tween-80 91 % of control

CCOC(=O)Cc1ccc(N(CCO)CCO)cc1
inactive: dose: 60.0 mg/kg/injection, schedule: Q01DX005 (ip), vehicle: saline with Tween-80 100 % of control | dose: 120.0 mg/kg/injection, schedule: Q01DX005 (ip), vehicle: saline with Tween-80 103 % of control | dose: 240.0 mg/kg/injection, schedule: Q01DX005 (ip), vehicle: saline with Tween-80 101 % of control

Cc1nc2[nH]c(=O)[nH]c(=O)c2[nH]1
inactive: dose: 100.0 mg/kg/injection, schedule: Q04DX003 (ip), vehicle: saline with Tween-80 100 % of control | dose: 200.0 mg/kg/injection, schedule: Q04DX003 (ip), vehicle: saline with Tween-80 113 % of control

O=C(/C=C/c1cccnc1)/C=C/c1cccnc1
inactive: dose: 6.25 mg/kg/injection, schedule: Q01DX009 (ip), vehicle: Klucel (hydroxypropylcellulose) (HPC) 122 % of control | dose: 12.5 mg/kg/injection, schedule: Q01DX009 (ip), vehicle: Klucel (hydroxypropylcellulose) (HPC) 124 % of control | dose: 25.0 mg/kg/injection, schedule: Q01DX009 (ip), vehicle: Klucel (hydroxypropylcellulose) (HPC) 124 % of control | dose: 50.0 mg/kg/injection, schedule: Q01DX009 (ip), vehicle: Klucel (hydroxypropylcellulose) (HPC) 120 % of control

CCOC(=O)c1c(N)sc2c1CCC2
inactive: dose: 100.0 mg/kg/injection, schedule: Q01DX001 (ip), vehicle: saline sonified 100 % of control | dose: 200.0 mg/kg/injection, schedule: Q01DX001 (ip), vehicle: saline sonified 95 % of control | dose: 400.0 mg/kg/injection, schedule: Q01DX001 (ip), vehicle: saline sonified 100 % of control
